US8686113B2 (priority 2009, dated 2014)
Values after ≈ are worked out from the molar mass of the structure shown. Read-outs that look alike come from different tables or passages of the source. Non-standard residues stand in square brackets, D forms with d. Residues, ends and D or L forms follow the SMILES beside them. Hyp = O=C(O)[C@@H]1C[C@@H](O)CN1; Orn = NCCC[C@H](N)C(=O)O

Legend:
M. luteus 10240 = test: Growth inhibition assay (microdilution MIC); type: cell-based, Micrococcus luteus; conditions: 10240, 20 h
How it was run: (§1)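 Broth microdilution in 1% TSB with twofold peptide series, final 128 μg/mL to 62.5 ng/mL, against 5×10^6 bacteria/mL stock suspension added 1:1. Incubated 20 h at 37 °C, growth read by absorbance at 595 nm; MIC is the lowest concentration with no growth, determined in triplicate.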

E. coli BL21 A1 = type: cell-based, Escherichia coli; conditions: BL21, 20 h
How it was run: as §1

[1] = test system: P. aeruginosa 10 J. Wilson
Experimental: (§2) The minimum inhibitory concentrations (MIC) of the antimicrobial peptides and peptide derivatives were determined in microdilution assays. These used a continuous peptide dilution in sterile flat-bottomed 96-well microtiter plates (polystyrene, Greiner Bio-One GmbH, Frickenhausen, Germany) and a total volume of 100 μL per well. The aqueous peptide or peptidomimetic solutions were diluted with 1% TSB water, to obtain a final concentration of 256 μg/mL. 50 μL of the peptide or peptidomimetic solution was pipetted into the first well of each series and stirred. From this solution, 50 μL was transferred to the second well, stirred and again 50 μL was transferred to the next well, and so on. A double dilution series is obtained, beginning at 256 μg/mL in the first well to 125 ng/mL in the twelfth well. The bacteria, e.g. E. coli BL21 A1, were cultured overnight at 37° C. in nutrient broth (NB, Carl Roth GmbH+Co. KG, Karlsruhe, Germany). 50 μL of a 5×10^6 bacteria/mL suspension in 1% TSB was added to each well of the microtiter plate and thus a final concentration of the peptides or peptidomimetics from 128 μg/mL (well 1) to 62.5 ng/mL (well 12) was established in each series. The plates were incubated at 37° C. for 20 h and then the absorption was measured at 595 nm with a TECAN microtiter plate spectrophotometer (Tecan Trading AG, Mannedorf, Switzerland). The MIC values of all peptides and peptidomimetics were determined in triplicate. Sterile water was used as negative control.
(§3) The tests were in this case carried out in Mueller-Hinton medium (¼ concentrated), which is equivalent to 1% TSB.

E. coli D31 J. Wilson = conditions: ¼ Muller-Hinton medium
Experimental: as §2, §3

E. coli ATCC BAA-457 = conditions: ¼ Muller-Hinton medium
Experimental: as §2, §3

[2] = test system: K. pneumoniae K6 ATCC 700603; conditions: ATCC 700603
Experimental: as §2, §3

[3] = test system: S. typhimurium ATCC 14028
Experimental: as §2, §3

P. mirabilis ATCC 7002 = conditions: ATCC 7002
Experimental: as §2, §3

K. pneumoniae ATCC 27799 = conditions: ATCC 27799
Experimental: as §2, §3

K. pneumoniae 012-3131 = test system: K. pneumoniae 012-3131
Experimental: as §2, §3

[4] = test system: S. typhimurium ATCC 700408
Experimental: as §2, §3

[5] = test system: S. typhimurium s5 (J. Weiser); conditions: ¼ Muller-Hinton medium
Experimental: as §2, §3

E. coli 045-849 SENTRY = conditions: 045-849 SENTRY
Experimental: as §2, §3

P. vulgaris ATCC 6896 = conditions: ATCC 6896
Experimental: as §2, §3

[6] = test system: Pseudomonas aeruginosa DSM 3227
Experimental: as §2
(§4) The peptides shown in Table 8 were investigated for their MIC against pathogenic bacteria such as E. coli DSM 10233, K. pneumoniae DSM 681 and P. aeruginosa DSM 3227.

[7] = test system: Escherichia coli DSM 10233
Experimental: as §2, §4

[8] = test system: Klebsiella pneumoniae DSM 681
Experimental: as §2, §4

[9] = Stability against bacterial proteases in E. coli lysate; type: in vitro ADME; conditions: E. coli lysate with 0.5 mg/mL protein concentration
Experimental: For the bacterial lysate, 500 mL of nutrient broth (Carl Roth GmbH+Co. KG, Karlsruhe) was inoculated with E. coli BL21 A1 and incubated overnight at 37° C. 2×250 mL bacterial suspension were centrifuged for 25 min at 5000 rpm and 4° C. in a Beckman Avanti™ J-20-XP centrifuge with JLA-10.500 rotor (Beckman Coulter, Fullerton, U.S.A.). The pellets were each suspended in 30 mL PBS (pH 7.4) and centrifuged again in a Beckman Allegra™ 2IR centrifuge (Beckman Coulter, Fullerton, U.S.A.). The pellets were each suspended in 10 mL PBS and were disrupted with ultrasound (Vibra-cell™ microtip, Fisher Bioblock Scientific, Illkirch, France) 2×5 min (750 W; amplitude 40%; 2 s on/3 s off) on ice. The bacterial lysates were combined and 1 mL aliquots were centrifuged at 15400 rpm for 20 min at 4° C. (Beckman Allegra™). The supernatants were removed and stored at −20° C. The protein content of the bacterial lysate was determined by protein determination according to Bradford.
A solution of 0.15 μg/mL peptide in bacterial lysate with protein content of 1.5 mg/mL or 0.5 mg/mL was incubated at 37° C. After 0, 30, 60, 120, 240 or 360 min, 200 μL was taken from each and the proteins were precipitated with 50 μL of 15% trichloroacetic acid. Then it was incubated for 10 min at 4° C. and then centrifuged for 5 min at 13000 rpm in a Minispin desktop centrifuge. 210 μL was taken from the supernatant and neutralized with 1 mol/L sodium hydroxide solution. The intact peptide and the degradation products were analyzed by HPLC. 60 μL of 3% aqueous acetonitrile with 0.1% trifluoroacetic acid (TFA) was added to the solution and 250 μL of the mixture was injected. After chromatographic separation, the constituents were identified by MALDI-TOF-MS,
In order to investigate the stability against bacterial proteases, a lysate was prepared from an overnight culture of E. coli BL21 A1 and the peptides were incubated in it. Using Bradford protein determination, the protein concentration was adjusted to 0.5 or 1.5 mg/mL.

[10] = mouse, serum

| SMILES | MIC M. luteus 10240 (M. luteus 10240) | MIC E. coli BL21 A1 (E. coli BL21 A1) | MIC P. aeruginosa 10 J. Wilson [1] | MIC E. coli D31 J. Wilson (E. coli D31 J. Wilson) | MIC E. coli SEQ 102ATCC # BAA-4 57 (E. coli ATCC BAA-457) | MIC K. pneumoniae K6 ATCC 700603 [2] | MIC S. typhimurium ATCC 14028 [3] | MIC P. mirabilis ATCC 7002 (P. mirabilis ATCC 7002) | MIC K. pneumoniae ATCC 27799 (K. pneumoniae ATCC 27799) | MIC K. pneumoniae 012-3131 (K. pneumoniae 012-3131) | MIC S. typhimurium ATCC 700408 [4] | MIC S. typhimurium s5 (J. Weiser) [5] | MIC E. coli 045-849 SENTRY (E. coli 045-849 SENTRY) | MIC P. vulgaris ATCC 6896 (P. vulgaris ATCC 6896) | MIC P. aeruginosa DSM 3227 [6] | MIC E. coli DSM 10233 [7] | MIC K. pneumoniae DSM 681 [8] | remaining at 4 h, 0.15 μg/mL ([9]; E. coli BL21 A1 lysate (bacterial proteases), pH 7.4, read-out: percentage printed under half-life >240 min (peptide remaining)) | half-life ([9]; 37° C.) | half-life [10] |
| --- | --- | --- | --- | --- | --- | --- | --- | --- | --- | --- | --- | --- | --- | --- | --- | --- | --- | --- | --- | --- |
| CC[C@H](C)[C@H](NC(=O)[C@H](CCCNC(=N)N)NC(=O)[C@H](CCCNC(=N)N)NC(=O)[C@@H]1CCCN1C(=O)[C@@H]1CCCN1C(=O)[C@H](CCCNC(=N)N)NC(=O)[C@@H]1CCCN1C(=O)[C@H](CCCNC(=N)N)NC(=O)[C@@H]1C[C@@H](O)CN1C(=O)[C@H](CC(C)C)NC(=O)[C@H](Cc1ccc(O)cc1)NC(=O)[C@@H]1CCCN1C(=O)[C@@H]1CCCN1C(=O)[C@H](CCCCN)NC(=O)[C@H](CC(=O)O)NC(=O)[C@@H](N)C(C)C)C(=O)N[C@@H](Cc1ccc(O)cc1)C(=O)N[C@@H](CC(N)=O)C(=O)N[C@@H](CCCNC(=N)N)C(N)=O [compound 22] (H-VDKPPYL[Hyp]RPRPPRRIYNR-NH2) | 4 mg/L (≈ 1.66 µM) | 8 mg/L (≈ 3.33 µM) | 16 mg/L (≈ 6.65 µM) | 2 mg/L (≈ 0.831 µM) | 4 mg/L (≈ 1.66 µM) | 8 mg/L (≈ 3.33 µM) | 2 mg/L (≈ 0.831 µM) | 128 mg/L (≈ 53.2 µM) | 16 mg/L (≈ 6.65 µM) | 4 mg/L (≈ 1.66 µM) | 0.5 mg/L (≈ 0.208 µM) | 8 mg/L (≈ 3.33 µM) | 4 mg/L (≈ 1.66 µM) | 128 mg/L (≈ 53.2 µM) |  |  |  |  |  |  |
| CC[C@H](C)[C@H](NC(=O)[C@H](CCCN)NC(=O)[C@H](CCCNC(=N)N)NC(=O)[C@@H]1C[C@@H](O)CN1C(=O)[C@@H]1CCCN1C(=O)[C@H](CCCNC(=N)N)NC(=O)[C@@H]1CCCN1C(=O)[C@H](CCCNC(=N)N)NC(=O)[C@@H]1CCCN1C(=O)[C@H](CC(C)C)NC(=O)[C@H](Cc1ccc(O)cc1)NC(=O)[C@@H]1CCCN1C(=O)[C@@H]1CCCN1C(=O)[C@H](CCCCN)NC(=O)[C@H](CC(=O)O)NC(=O)[C@@H](N)C(C)C)C(=O)N[C@@H](Cc1ccc(O)cc1)C(=O)N[C@@H](CC(N)=O)C(=O)N[C@@H](CCCN)C(N)=O [compound 107] (H-VDKPPYLPRPRP[Hyp]R[Orn]IYN[Orn]-NH2) | 4 mg/L (≈ 1.72 µM) | 4 mg/L (≈ 1.72 µM) |  |  |  |  |  |  |  |  |  |  |  |  | >32 mg/L | 16 mg/L (≈ 6.89 µM) | 4 mg/L (≈ 1.72 µM) |  |  |  |
| CC[C@H](C)[C@H](NC(=O)[C@@H]1C[C@@H](O)CN1C(=O)[C@H](CCCNC(=N)N)NC(=O)[C@@H]1C[C@@H](O)CN1C(=O)[C@@H]1CCCN1C(=O)[C@H](CCCNC(=N)N)NC(=O)[C@@H]1CCCN1C(=O)[C@H](CCCNC(=N)N)NC(=O)[C@@H]1CCCN1C(=O)[C@H](CC(C)C)NC(=O)[C@H](Cc1ccc(O)cc1)NC(=O)[C@@H]1CCCN1C(=O)[C@@H]1CCCN1C(=O)[C@H](CCCCN)NC(=O)[C@H](CC(=O)O)NC(=O)[C@@H](N)C(C)C)C(=O)N[C@@H](Cc1ccc(O)cc1)C(=O)N[C@@H](CC(N)=O)C(=O)N[C@@H](CCCN)C(N)=O [compound 108] (H-VDKPPYLPRPRP[Hyp]R[Hyp]IYN[Orn]-NH2) | 32 mg/L (≈ 13.8 µM) | 2 mg/L (≈ 0.862 µM) |  |  |  |  |  |  |  |  |  |  |  |  | 16 to 32 mg/L | 1 mg/L (≈ 0.431 µM) | 2 mg/L (≈ 0.862 µM) | 60% | > 4 h | 2.5 h |
